Data set [1] can be described thus: in vivo. The settings on record: for exposure in the plasma, fold higher than CBD, L1, and L3: oral. The method, then: (§1) Animal experiments were conducted in accordance with the National Institutes of Health Laboratory Animal Care and Use Guidelines. Male SPF SD rats from the Animal Center of Anhui Medical University (Hefei, China) were used for the experiment. […] At each time point (0.5, 1, 2, 4, and 8 h) after administration, samples of brain, heart, kidney, liver, lung, and spleen were collected from each rat for tissue distribution study. While for pharmacokinetic study, the plasma samples were gathered from the suborbital vein at 5, 15, 30, and 45 min and 1, 2, 4, 8, and 12 h after oral administration. The maintenance and treatment procedures for experimental animals were approved by the Animal Care and Use Committee of Anhui Medical University (approval number: LLSC20190274). Room temperature was 22 ± 2 °C, using a light/dark (12: 12 h) cycle, the animals were free to consume food and water one day before the experiment.
(§2) An aliquot of 60 μL plasma sample was spiked with 60 µL aqueous ascorbic acid (0.1%) and 20 μL of IS working solution (300 ng/mL). After vortexing for 30 s, 400 µL MTBE was added to plasma sample for liquid–liquid extraction. The mixture was vigorously mixed for 10 min and centrifuged at 12,000 rpm at 4 °C for 5 min; approximately 400 µL of supernatant was transferred to a clean 1.5 mL centrifuge tube and dried under a gentle stream of nitrogen gas. Subsequently, the residue was reconstituted with 100 µL of MeOH/water (7: 3, v/v), vortex-mixed for 2 min, and followed by centrifugation at 12,000 rpm for 20 min. Finally, 20 μL of the supernatant was injected into the UPLC-HRMS system for measurement. The tissue sample (100 mg) was homogenized in normal saline solution (1 mL), 600 μL homogenate sample was spiked with 60 µL aqueous ascorbic acid (0.1%) and 50 μL of the IS working solution (1000 ng/mL), and 1.2 mL MTBE was added for extraction. Then, 1 mL of supernatant was dried and proceeded as plasma sample pretreatment (Figure S1).
(§3) Quantitative analysis using Dionex Ultimate 3000 chromatography hyphenated to Q-Exactive plus Orbitrap mass spectrometer system (Thermo Fisher Scientific, Waltham, MA, USA). The analytes were detected in Full MS/dd-MS^2 mode to choose the parent ion and optimize the retention time; then, we used the parallel reaction monitoring (PRM) mode through positive ionization condition for determination. Xcalibur 4.1 software (Thermo Fisher Scientific) was used for data acquisition and processing.
Chromatographic separation was achieved on a Shimadzu-pack GIST column (50 mm × 2.1 mm, 2 μm, Shimadzu Company, Kyoto, Japan). Binary mobile solvents consisted of water (containing 0.1% FA, v/v) (A) and acetonitrile (B), the gradient program was as follows: 0 min 60% A → 1 min 60% A → 1.5 min 20% A → 7 min 20% A → 7.1 min 60% A → 8.5 min 60% A. The flow rate was set at 0.30 mL/min and the column temperature was 40 °C. The typical source parameters were optimized as follows: spray voltage: 4500 V; capillary temperature: 320 °C; auxiliary gas heater temperature: 200 °C; pressure of sheath gas: 320 kPa; auxiliary gas: 50 kPa.
Phoenix/WinNonlin software (version 6.4; Pharsight, Mountain View, CA, USA) was used to calculate the AUC and other pharmacokinetic parameters in plasma or tissue for each drug in a non-compartmental model.

Data set [2] deals with eqBuChE. The settings on record: eqBuChE from horse serum; mean ± SEM, at least three experiments; read-out: IC50 BuChE; cited from earlier work.
The conditions of data set [3]: cited from earlier work.
Data set [4] deals with eeAChE. The settings on record: eeAChE from electric eel, cited from earlier work; for IC50: mean ± SEM, at least three experiments.
Data set [5] in a line: in vivo. The settings on record: for Cmax / Kp / selectivity ratio: male, SD, rat, in vivo; for Cmax / Kp: po; for Cmax: 15 mg/kg; for Kp: AUCtissue/AUCplasma; for AUCbrain: brain; for AUCheart: heart; for AUCkidney: kidney; for AUCliver: liver; for AUClung: lung; for AUCspleen: spleen. The protocol: Drug exposure in tissue is calculated by drug exposure in the plasma and tissue/plasma distribution coefficient (Kp), as shown in Equation (1):Drug exposure in the tissue = drug exposure in the plasma × Kp(1) where drug exposure in the plasma and the tissue can be calculated by the drug concentration vs. time curve, and Kp values can be calculated by Ctissue/Cplasma or AUCtissue/AUCplasma. […] It is worth mentioning that Kp can be evaluated by the ratio of free fraction of drug candidate in plasma vs. in tissues in steady state. Nevertheless, this assessment is based on “free drug hypothesis” theory, which presumes that free drug concentration in tissue is close to that in plasma.
Dose escalation tests are always evaluated during clinical phase I/II trials, and MTD is constantly associated with drug exposure in certain toxicity-related organs. […] To evaluate the balance between efficacy and toxicity for drug candidates, drug tissue selectivity is a crucial parameter and defined as follows in Equation (2), where the sum of Ctissue or AUCtissue is total drug concentration or AUC in different tissues. Drug tissue selectivity = Ctissue/ΣCtissue or AUCtissue/ΣAUCtissue(2)
as §1, §2, §3
Chromatographic separation was achieved on a Shimadzu-pack GIST column (50 mm × 2.1 mm, 2 μm, Shimadzu Company, Kyoto, Japan).

Where [6] appears, read: male, SD, rat, in vivo, po, 15 mg/kg.
[7] abbreviates: rats, single intragastric 15 mg/kg, plasma.

Each structure is given as a SMILES string. Like-named read-outs stand apart in the source and are kept apart here.

Broadly, the AUC is the area under the concentration-time curve, a measure of exposure. For orientation: AUC(0-inf) means the area under the concentration-time curve extrapolated to infinity. A lower AUC(0-inf) goes with less exposure. The AUC(0-t) is exposure summed from dosing to a finite time, without extrapolation to infinity. A low value points to less exposure. A word on the Cmax: it is the maximum level reached in the sampled fluid or tissue. What is called MRT last is the average time that molecules of a dose stay in the body. A word on the Tmax: it is the time from dosing to the highest level. Broadly, the half-life is how long it takes for the measured level to halve. In general, Vd refers to a proportionality between amount in the body and measured concentration, not a real space. High values mean extensive tissue distribution, low ones confinement near the circulation. The IC50 is the concentration that gives 50% inhibition. Turning to `C=C(C)C1CCC(C)=CC1c1c(O)cc(CCCCC)cc1OC(=O)N1CCCC1` (stereo not shown) [Compound L3], in data set [1] (setting [6]), the AUC worked out at 182 ng·h/mL, the AUC(0-inf) amounted to 200 ± 32.5 ng·h/mL, the AUC(0-t) was 182 ± 13.9 ng·h/mL and the Cmax stood at 60 ± 8.63 ng/mL. For the same compound, in data set [1] (setting [6]), the MRT last came out at 2.72 ± 0.6 h, the Tmax worked out at 0.95 ± 0.11 h and the half-life is 3.09 ± 1.52 h. In data set [1] (setting [7]), this compound had a CL of 1273 ± 194.7 mL/min/kg and a Vd of 320.94 ± 106.75 L/kg. In addition, in data set [2], the IC50 was 390 ± 40 nM.

Usually bioavailability stands for dose-corrected exposure relative to a reference, in per cent. Regarding `CCN(C)C(=O)Oc1cccc([C@H](C)N(C)C)c1` [rivastigmine, reference compound], the bioavailability in data set [3] is recorded as 36–40%.

Take `CNC(=O)Oc1ccc2c(c1)[C@]1(C)CCN(C)[C@@H]1N2C` [physostigmine]: in data set [3], the “drug concentration in brains after oral vs intramuscular administration, times less” value is 350 times and the “drug concentration in plasma after oral vs intramuscular administration, times less” value is recorded as 200 times. Besides, in data set [3] (first-pass metabolism), the bioavailability is on record as 2%.

In data set [1] (setting [6]), `C=C(C)C1CCC(C)=CC1c1c(O)cc(CCCCC)cc1OC(=O)NC` (stereo not shown) [Compound L1] came in with an AUC of 191 ng·h/mL, an AUC(0-inf) of 197 ± 58 ng·h/mL, an AUC(0-t) of 191 ± 58.7 ng·h/mL and a Cmax of 120 ± 15.9 ng/mL. Besides, in data set [1] (setting [6]), the MRT last was 2.05 ± 0.47 h, the Tmax is 0.22 ± 0.07 h and the half-life is 2.7 ± 1.27 h. In data set [1] (rats, intragastric administration), the “metabolism to CBD observed in plasma” value is listed as “can be metabolized to produce CBD”. In data set [1] (setting [7]), the CL was 1353 ± 361.8 mL/min/kg and the Vd came out at 319.94 ± 171.55 L/kg. Besides, the IC50 in data set [2] is 128 ± 22 nM. Further, in data set [4], the IC50 is 18900 ± 1110 nM.

As a reminder, the Kp is the ratio of the level in a tissue or fluid to that in plasma or blood. As for `C=C(C)C1CCC(C)=CC1c1c(O)cc(CCCCC)cc1OC(=O)N(C)Cc1ccc(Cl)cc1` (stereo not shown) [Compound L4], in data set [1] (setting [6]), the Cmax worked out at 211 ± 30.7 ng/mL, the MRT last was determined as 2.38 ± 0.21 h, the Tmax was 0.8 ± 0.11 h and the half-life is 2.17 ± 0.19 h. In addition, the “exposure in the plasma, fold higher than CBD, L1, and L3” value in data set [1] (rats) is over 3 fold. In data set [1] (setting [7]), this compound displayed a CL of 483.2 ± 100 mL/min/kg and a Vd of 91.52 ± 22.81 L/kg. The IC50 in data set [2] is 5.3 ± 1.2 nM. For the same compound, the “Inhibition Rate % at 20 µM, AChE” value in data set [4] (at 20 µM) is on record as 21.4 ± 2.8%. For the same compound, the Cmax in data set [5] came out at 19 ng/g. The Kp in data set [5] (Kp brain, rats) turned out to be 0.088. The same compound gave a Kp in data set [5] (Kp heart, rats) of 15.1. Moreover, the Kp in data set [5] (Kp kidney, rats) was 15.7. For the same compound, the Kp in data set [5] (Kp liver, rats) was determined as 10.1. The Kp in data set [5] (Kp lung, rats) is 15.1. Further, in data set [5] (Kp spleen, rats), the Kp stood at 11.7. In data set [5] (rats, oral 15 mg/kg), this compound came in with an AUCbrain of 43.2 ng·h/g, an AUCheart of 7431.3 ng·h/g, an AUCkidney of 7723.4 ng·h/g and an AUCliver of 4951.2 ng·h/g. Moreover, in data set [5] (rats, oral 15 mg/kg), the AUClung turned out to be 7421.8 ng·h/g and the AUCspleen was 5773.9 ng·h/g.

Take `C=C(C)[C@@H]1CCC(C)=C[C@H]1c1c(O)cc(CCCCC)cc1O` [L1→CBD]: in data set [1] (setting [7]), the AUC0-T came out at 165.91 ± 87.56 ng·h/mL, the “AUC0-∞” value was found to be 172.51 ± 84.52 ng·h/mL, the CL came out at 1718.8 ± 707.3 mL/min/kg and the Cmax worked out at 94.59 ± 27.06 ng/mL. For the same compound, in data set [1] (setting [7]), the MRT0-T amounted to 2.21 ± 0.42 h, the time to peak (Tmax) was found to be 0.27 ± 0.15 h, the Vd is listed as 577.46 ± 442.26 L/kg and the t1/2 was determined as 3.43 ± 1.64 h.

In data set [1] (setting [6]), `C=C(C)[C@@H]1CCC(C)=C[C@H]1c1c(O)cc(CCCCC)cc1O` [CBD, Cannabidiol, reference compound] showed an AUC of 158 ng·h/mL, an AUC(0-inf) of 168 ± 11.5 ng·h/mL, an AUC(0-t) of 158 ± 10.6 ng·h/mL and a Cmax of 48.9 ± 11 ng/mL. In addition, in data set [1] (setting [6]), the MRT last turned out to be 2.84 ± 0.23 h, the Tmax came out at 1.2 ± 0.45 h and the half-life was 3.7 ± 1.26 h. In data set [1] (setting [7]), this compound showed a CL of 1492 ± 107 mL/min/kg and a Vd of 474.16 ± 155.23 L/kg. Moreover, in data set [2], the IC50 is 670 ± 60 nM. Besides, in data set [3], the “Tmax (reported values)” value was 0 to 4 h and the “t1/2 (reported values)” value was 1.4 to 10.9 h. Besides, the IC50 in data set [4] is 17100 ± 2430 nM.

On to `C=C(C)C1CCC(C)=CC1c1c(O)cc(CCCCC)cc1OC(=O)N(C)CC` (stereo not shown) [Compound L2], for which, in data set [1] (setting [6]), the Cmax was determined as 127 ± 23.6 ng/mL, the MRT last was found to be 3.44 ± 0.22 h, the Tmax came to 1.8 ± 0.45 h and the half-life was 2.64 ± 0.45 h. In addition, the “exposure in the plasma, fold higher than CBD, L1, and L3” value in data set [1] (rats) was over 3 fold. In data set [1] (setting [7]), this compound gave a CL of 434.5 ± 74.8 mL/min/kg and a Vd of 99.38 ± 23.95 L/kg. Moreover, the IC50 in data set [2] was 77 ± 5 nM. Besides, the IC50 in data set [4] was 15000 ± 1020 nM. In data set [5], the Cmax was determined as 56 ng/g. Besides, the Kp in data set [5] (Kp brain, rats) came to 0.42. The compound also returned a Kp in data set [5] (Kp heart, rats) of 2.63. The compound also had a Kp in data set [5] (Kp kidney, rats) of 5.51. Further, in data set [5] (Kp liver, rats), the Kp was determined as 5.3. In addition, the Kp in data set [5] (Kp lung, rats) was 3.27. In data set [5] (Kp spleen, rats), this compound returned a Kp of 2.41. Also, the selectivity ratio in data set [5] (tissue selectivity in the brain, fold higher than L4, AUCtissue/ΣAUCtissue, L2 vs L4) came to 21. Moreover, the selectivity ratio in data set [5] (tissue selectivity in the kidney, fold lower than L4, AUCtissue/ΣAUCtissue, L2 vs L4) was found to be 1.2. Besides, in data set [5] (tissue selectivity in the liver, fold lower than L4, AUCtissue/ΣAUCtissue, L2 vs L4), the selectivity ratio came out at 1.8. In data set [5] (rats, oral 15 mg/kg), this compound gave an AUCbrain of 213.8 ng·h/g, an AUCheart of 1331.9 ng·h/g, an AUCkidney of 2790.2 ng·h/g and an AUCliver of 2684.5 ng·h/g. In data set [5] (rats, oral 15 mg/kg), this compound yielded an AUClung of 1655.0 ng·h/g and an AUCspleen of 1220.9 ng·h/g. Also, in data set [5] (rats, oral 15 mg/kg, L2 vs L4), the “exposure in the kidney, fold lower than L4” value was 2.8 fold and the “exposure in the liver, fold lower than L4” value came to 1.8 fold. The “brain concentration relative to L4” value in data set [5] (rats, oral, L2 vs L4) is reported as “fivefold higher”.

The values are drawn from publication PMC11593952 (International Journal of Molecular Sciences, 2024).
